Laboratory results: patent US20120121670A1, “POLYARGININE NANOCAPSULES” (priority 2009, published 2012)

Tested on: NCI-H460 lung cancer cell line
Assay: Cell proliferation inhibition
Format: cell-based
Settings: Homo sapiens, docetaxel concentration, Graph Pad Prism 2.1, read-out: IC50 (concentration at which the proliferation of 50% of the population is inhibited)
Description: The % of cell viability at different concentrations of DCX is depicted for polyarginine NC, DCX in solution, polyarginine/DCX NC.
In order to evaluate the potential of the PArg nanocapsules encapsulating the docetaxel cytostatic molecule to inhibit the cell proliferation of the NCI-H460 lung cancer cell line the nanocapsules were prepared according to the method described in Example 3. The results shown in FIG. 9 show the great proliferation inhibition capacity of the nanocapsules encapsulating docetaxel in comparison with the free molecule. […] The IC50 values, concentration at which the proliferation of 50% of the population is inhibited, were calculated by means of the Graph Pad Prism 2.1 program (Graph Pad Software).

IC50: 13.3 nM
SMILES: CC(=O)O[C@@]12CO[C@@H]1C[C@H](O)[C@@]1(C)C(=O)[C@H](O)C3=C(C)[C@@H](OC(=O)[C@H](O)[C@@H](NC(=O)OC(C)(C)C)c4ccccc4)C[C@@](O)([C@@H](OC(=O)c4ccccc4)[C@H]21)C3(C)C [docetaxel solution, docetaxel]
